Data as given in patent US20260242478A1, “ANTIBODIES FOR TARGETING PSMA AND CD28 AND USES THEREOF” (Janux Therapeutics, Inc., priority 2023, published 2026).
Where no end group is shown, it is not given here.

What follows are substances tested on anti-CD28 scFv (SEQ ID NO: 9) (assay: Kinetic binding of anti-CD28 scFv to peptides, bio-layer interferometry (Octet RED96)). Conditions: Table 34; CD28 scFv titrated 100-12.5 nM, 200 nM peptide loaded.
Description: (§1) Briefly, streptavidin biosensors were loaded with biotinylated peptides and baselined in buffer. […] After a short association period, sensors were transferred into buffer and the dissociation of bound anti-CD28 scFv was measured. The timing and steps of the experiment are shown in the accompanying table. Association and dissociation signals were recorded in real time and analyzed using a 1:1 binding model within the instrument software. Analysis using a 1:1 binding model enabled the calculation of the on and off rate constants as well as affinity, KD.
as §1, with “KD. FIGS. 70A-70F illustrate kinetic binding of anti-CD28 scFv binding to peptides as measured by Octet. FIGS. 70G-70U illustrate kinetic binding of peptides to the anti-CD28 scFv as measured by Octet.” for “KD.”

Chain of anti-CD28 scFv (SEQ ID NO: 9) (as listed by the source): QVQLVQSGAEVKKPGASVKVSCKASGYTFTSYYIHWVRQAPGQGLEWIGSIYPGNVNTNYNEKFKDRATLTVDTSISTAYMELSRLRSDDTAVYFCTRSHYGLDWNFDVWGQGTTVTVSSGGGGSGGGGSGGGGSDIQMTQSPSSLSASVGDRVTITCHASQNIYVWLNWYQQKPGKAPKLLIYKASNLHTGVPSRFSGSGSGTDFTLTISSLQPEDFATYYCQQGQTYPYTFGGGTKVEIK

Substance	kdis [s⁻¹]	kon [M⁻¹ s⁻¹]
GYCHYWGDMVMWCG [Peptide-12]	0.00167	98700

Same assay, conditions: Table 36; anti-CD28 scFv titrated 100-12.5 nM, 200 nM peptide loaded

Substance	Kd [nM]	kdis [s⁻¹]	kon [M⁻¹ s⁻¹]
MDWCPIDLWNECFF [Peptide-31]	71.8	0.00369	51400

Each substance was assayed on PSMA Fab (assay: Phage binding ELISA, PSMA Fab, with or without PSMA antigen (peptide-179 and peptide-180 libraries)). Conditions: peptide-180 library clonal phage; background (no Fab).
Chain of PSMA Fab (as listed by the source): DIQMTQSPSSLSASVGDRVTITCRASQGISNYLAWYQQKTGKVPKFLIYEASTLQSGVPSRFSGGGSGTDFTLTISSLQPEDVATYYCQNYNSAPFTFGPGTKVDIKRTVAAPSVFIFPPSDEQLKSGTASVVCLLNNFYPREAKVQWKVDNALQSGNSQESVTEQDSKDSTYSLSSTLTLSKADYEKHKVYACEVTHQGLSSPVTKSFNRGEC
Chain of PSMA Fab (as listed by the source): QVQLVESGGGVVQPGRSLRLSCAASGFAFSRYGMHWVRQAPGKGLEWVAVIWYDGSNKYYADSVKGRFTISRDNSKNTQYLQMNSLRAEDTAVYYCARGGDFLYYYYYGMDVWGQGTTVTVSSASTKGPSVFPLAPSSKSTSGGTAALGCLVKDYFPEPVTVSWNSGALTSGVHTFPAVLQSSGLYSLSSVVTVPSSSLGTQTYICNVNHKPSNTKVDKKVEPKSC
Description: (§2) Once the phage optimization libraries were completed, phage libraries were bio-panned using PSMA Fab loaded beads. Multiple rounds of panning were performed where bacteriophage was allowed to bind to PSMA Fab loaded beads. washed. eluted, and amplified. After panning, phage infected bacteria were plated out and colonies picked into 96 well blocks. Clonal phage was then amplified and separated from bacterial cells via centrifugation. Phage containing supemnatants were tested in binding ELISAs against PSMA Fab coated plates in the presence or absence of saturating concentrations of PSMA antigen. Phage able to bind PSMA Fab were selected for sequence analysis if the binding signal was reduced in the presence of PSMA.
Clonal phage were harvested as crude supernatants and screened via standard ELISAs. Briefly, biotinylated PSMA Fab was captured on neutravidin coated plates. Prior to the addition of clonal phage. wells were incubated with blocking buffer and PSMA antigen or blocking buffer alone. Without washing or aspirating, clonal phage supernatants were then added to the wells and incubated for a short time. Wells were then washed followed by detection of bound phage using a horse radish conjugated anti-M13 antibody. Clonal phage of interest were then sent for sequence analysis.
as §2, with “beads, washed,” for “beads. washed.”, “supernatants” for “supemnatants”

Substance	Phage binding ELISA Background signal
Phage-2787 (LWKSCTPEWMCAEW)	0.0888
Phage-2788 (SVKWCTPSWMCTEW)	0.0817
Phage-2789 (VGKWCTPEWMCSGF)	0.058
Phage-2790 (VMKWCTPSWMCAEA)	0.067
Phage-2791 (WEKWCTPSWMCSGI)	0.0564
Phage-2792 (TQHWCTPIWMCEGL)	0.0865
Phage-2793 (VTNWCTPPWMCEML)	0.0676
Phage-2794 (TEKWCIPQWMCVRT)	0.056
Phage-2795 (FEKWCTPQWMCNSM)	0.0569
Phage-2796 (LNNWCTPAWMCVGY)	0.0697
Phage-2797 (ERIWCTPKWMCETF)	0.0696
Phage-2798 (HFKWCIPPWMCLEI)	0.0798
Phage-2799 (ESKWCVPTWMCAEN)	0.0516
Phage-2800 (DYKWCTPPWMCDSR)	0.0795
Phage-2801 (SDNWCKPEWMCVGH)	0.0738
Phage-2802 (TPKWCTPAWMCVVS)	0.0829
Phage-2803 (VKHVCMPEWMCYWS)	0.0652
Phage-2804 (EGKWCTPTWMCQGF)	0.0669
Phage-2805 (MMHWCTPPWMCEFS)	0.0597
Phage-2806 (GATWCTPTWMCTGF)	0.0609
Phage-2807 (WENWCIPQWMCGTA)	0.1629
Phage-2808 (MEKWCTPRWMCVGM)	0.0767
Phage-2809 (VTKLCIPEWMCVIQ)	0.0543

Substance	Phage binding ELISA Background signal
Phage-2810 (MDIWCKPRWMCEEY)	0.0644
Phage-2811 (VPKWCTPSWMCEFT)	0.0593
Phage-2812 (VGPWCIPDWMCDVV)	0.0572
Phage-2813 (FSKLCTPPWMCSVS)	0.0586
Phage-2814 (PMKWCTPPWMCSYS)	0.0793
Phage-2815 (IDKWCVPAWMCSPA)	0.0608
Phage-2816 (GDKWCKPSWMCDFF)	0.0602
Phage-2817 (EAKWCTPPWMCSLV)	0.0615
Phage-2818 (SVHMCKPPWMCQSM)	0.0587
Phage-2835 (VAKLCTPAWMCSAM; not fully specified; cysteine pairing not given here)	0.0643
Phage-2836 (DWKLCKPTWMCESL; not fully specified; cysteine pairing not given here)	0.0582
Phage-2837 (VDRWCTPPWMCDWQ; cysteine pairing not given here; also: large carrier left off)	0.0583
Phage-2838 (HPKLCTPEWMCVIQ; not fully specified; cysteine pairing not given here)	0.0666
Phage-2839 (DSHWCMPVWMCMGL; not fully specified; cysteine pairing not given here)	0.0737
Phage-2840 (EPQWCIPKWMCDHM; not fully specified; cysteine pairing not given here)	0.0612
Phage-2841 (ESIRCTPAWMCVEM; not fully specified; cysteine pairing not given here)	0.0625
Phage-2842 (PEVMCRPVWMCLGF; not fully specified; cysteine pairing not given here)	0.0609
Phage-2843 (MLPICKPDWMCAGF; not fully specified; cysteine pairing not given here)	0.0724
Phage-2844 (VVAMCKPAWMCAGL; not fully specified; cysteine pairing not given here)	0.0591
Phage-2845 (WDMLCRPAWMCEGF; not fully specified; cysteine pairing not given here)	0.0711
Phage-2846 (WEVRCVPEWMCVGF; not fully specified; cysteine pairing not given here)	0.0615
Phage-2847 (WMPRCVPEWMCAGF; not fully specified; cysteine pairing not given here)	0.1667
Phage-2848 (VMTVCKPAWMCTGF; not fully specified; cysteine pairing not given here)	0.1338

Substance	Phage binding ELISA Background signal
Phage-2849 (VFPICKPSWMCVGM; not fully specified; cysteine pairing not given here)	0.0918
Phage-2850 (VNIRCEPAWMCMGF; not fully specified; cysteine pairing not given here)	0.0727
Phage-2851 (DMRLCVPEWMCLGL; not fully specified; cysteine pairing not given here)	0.0889
Phage-2852 (VMPLCKPAWMCGGF; not fully specified; cysteine pairing not given here)	0.0869
Phage-2853 (MLPLCVPAWMCSGF; not fully specified; cysteine pairing not given here)	0.061
Phage-2854 (VHIMCKPAWMCLGF; not fully specified; cysteine pairing not given here)	0.0917
Phage-2855 (WEMKCIPEWMCRGF; cysteine pairing not given here; also: large carriers left off)	0.0794
Phage-2856 (VQRMCEPSWMCFGF; not fully specified; cysteine pairing not given here)	0.0631
Phage-2857 (LERACVPSWMCTGF; not fully specified; cysteine pairing not given here)	0.0649
Phage-2858 (TQAMCKPAWMCQGF; not fully specified; cysteine pairing not given here)	0.0585
Phage-2859 (WEFVCKPEWMCTGF; not fully specified; cysteine pairing not given here)	0.0551
Phage-2860 (EWILCKPAWMCDGL; not fully specified; cysteine pairing not given here)	0.051
Phage-2861 (WDRLCIPAWMCSGF; not fully specified; cysteine pairing not given here)	0.0903
Phage-2862 (TGAYCVPQWMCSGF; not fully specified; cysteine pairing not given here)	0.0638
Phage-2863 (FNVMCRPAWMCDFL; not fully specified; cysteine pairing not given here)	0.1545
Phage-2864 (IETWCVPRWMCEGF)	0.0693
Phage-2865 (MSPLCKPVWMCAGF)	0.0586
Phage-2866 (TSPACVPSWMCVGF)	0.0552
Phage-2867 (VLPMCSPPWMCIGL)	0.0631
Phage-2868 (EPIRCVPQWMCVGF)	0.0882
Phage-2869 (WPQLCVPMWMCAGL)	0.1456
